The results in this text go back to patent US11371055B2, “Herbicide resistance genes” (CORTEVA AGRISCIENCE LLC, priority 2005, dated 2022).

Assay [1] relates to PAT/Cry1F-transformed Arabidopsis (auxin-sensitive transformed control). Kind of assay: T1 Arabidopsis postemergence herbicide dose response, transformed control. Type of assay: in vivo, Arabidopsis thaliana. Here is the method:
Seven days after planting (DAP) and again 11 DAP, T1 plants (cotyledon and 2-4-lf stage, respectively) were sprayed with a 0.2% solution of Liberty herbicide (200 g ai/L glufosinate, Bayer Crop Sciences, Kansas City, Mo.) at a spray volume of 10 ml/tray (703 L/ha) using a DeVilbiss compressed air spray tip to deliver an effective rate of 280 g ai/ha glufosinate per application. Survivors (plants actively growing) were identified 4-7 days after the final spraying and transplanted individually into 3-inch pots prepared with potting media (Metro Mix 360). Transplanted plants were covered with humidity domes for 3-4 days and placed in a 22° C. growth chamber as before or moved to directly to the greenhouse. Domes were subsequently removed and plants reared in the greenhouse (22±5° C., 50±30% RH, 14 h light:10 dark, minimum 500 μE/m^2 s^1 natural+supplemental light) at least 1 day prior to testing for the ability of AAD-12 (v1) (plant optimized gene) to provide phenoxy auxin herbicide resistance.
T1 plants were then randomly assigned to various rates of 2,4-D. For Arabidopsis, 50 g ae/ha 2,4-D is an effective dose to distinguish sensitive plants from ones with meaningful levels of resistance. Elevated rates were also applied to determine relative levels of resistance (50, 200, 800, or 3200 g ac/ha). Tables 10 and 11 show comparisons drawn to an aryloxyalkanoate herbicide resistance gene (AAD-1 (v3)) previously described in PCT/US2005/014737.
All auxin herbicide applications were made using the DeVilbiss sprayer as described above to apply 703 L/ha spray volume (0.4 ml solution/3-inch pot) or applied by track sprayer in a 187 L/ha spray volume. 2,4-D used was either technical grade (Sigma, St. Louis, Mo.) dissolved in DMSO and diluted in water (<1% DMSO final concentration) or the commercial dimethylamine salt formulation (456 g ac/L, NuFarm, St Joseph, Mo.). Dichlorprop used was commercial grade formulated as potassium salt of R-dichlorprop (600 g ai/L, AH Marks). As herbicide rates increased beyond 800 g ae/ha, the pH of the spray solution became exceedingly acidic, burning the leaves of young, tender Arabidopsis plants and complicating evaluation of the primary effects of the herbicides. It became standard practice to apply these high rates of herbicides in 200 mM HEPES buffer, pH 7.5.
The first Arabidopsis transformations were conducted using AAD-12 (v1) (plant optimized gene). T1 transformants were first selected from the background of untransformed seed using a glufosinate selection scheme. Over 300,000 T1 seed were screened and 316 glufosinate resistant plants were identified (PAT gene), equating to a transformation/selection frequency of 0.10% which lies in the normal range of selection frequency of constructs where PAT+Liberty are used for selection. T1 plants selected above were subsequently transplanted to individual pots and sprayed with various rates of commercial aryloxyalkanoate herbicides. Table 11 compares the response of AAD-12 (v1) and control genes to impart 2,4-D resistance to Arabidopsis T1 transformants. Response is presented in terms of % visual injury 2 WAT. […] Since each T1 is an independent transformation event, one can expect significant variation of individual T1 responses within a given rate. An arithmetic mean and standard deviation is presented for each treatment. The range in individual response is also indicated in the last column for each rate and transformation. PAT/Cry1F-transformed Arabidopsis served as an auxin-sensitive transformed control. The AAD-12 (v1) gene imparted herbicide resistance to individual T1 Arabidopsis plants. Within a given treatment, the level of plant response varied greatly and can be attributed to the fact each plant represents an independent transformation event. Of important note, at each 2,4-D rate tested, there were individuals that were unaffected while some were severely affected. […]

Assay [2] relates to cotton cotyledonary segments. Type of assay: cell-based. Here is the method: A dose response study was initiated to test multiple auxin alternatives as a substitute for the use of 2,4-D as a growth regulator in cotton. The alternative auxin tested were 2,4-dichlorprop, dicamba, and picloram. These compounds were tested at 0.2, 2.0, and 20.0 uM concentrations respectively. 2,4-D was used as the control treatment at 0.02 uM concentration. The medium used is the base medium for cotton callus induction (Example 12). Beyond the initial phase of culture, auxin is removed from the medium to prod the tissue toward the regeneration process.

Assay [3] relates to AAD-12 (v1) event pDAB4101[20] T1 rice. Kind of assay: Field tolerance of rice, AAD-12 event. Type of assay: in vivo, Oryza sativa. The conditions noted are these: for visual injury: 7 or 15DAT; for % Visual injury 7DAT / % Visual injury 15DAT: AAD-12 event pDAB4101[20]. As to the method: A field level tolerance trial was conducted with AAD-12 (v1) event pDAB4101[20] and one wild-type rice (Clearfield 131) at Wayside, Miss. (a non-transgenic imidazolinone-resistant variety). The experimental design was a randomized complete block design with a single replication. […] Within each herbicide treatment, two rows of T1 generation pDAB4101[20] and two rows of Clearfield rice were planted using a small plot drill with 8-inch row spacing. The pDAB4101[20] rice contained the AHAS gene as a selectable marker for the AAD-12(v1) gene. Imazethapyr was applied at the one leaf stage as selection agent to remove any AAD-12 (v1) null plants from the plots. Herbicide treatments were applied when the rice reached the 2 leaf stage using compressed air backpack sprayer delivering 187 L/ha carrier volume at 130-200 kpa pressure. […]

Where [4] appears, read: 50 g ae/ha R-dichlorprop postemergence.
The mark [5] stands for this setting: 200 g ae/ha R-dichlorprop postemergence.
[6] abbreviates: 800 g ae/ha R-dichlorprop postemergence.
Setting [7] is: 3200 g ae/ha R-dichlorprop postemergence.
Setting [8] is: 50 g ae/ha 2,4-D postemergence, 2 WAT.
Where [9] appears, read: 200 g ae/ha 2,4-D postemergence, 2 WAT.
Setting [10] is: 800 g ae/ha 2,4-D postemergence, 2 WAT.
Setting [11] is: 3200 g ae/ha 2,4-D postemergence, 2 WAT.

Take `C[C@@H](Oc1ccc(Cl)cc1Cl)C(=O)O` [(R)-dichlorprop, R-2,4-dichlorophenoxypropionic acid]: the “% Injury 20-40% (number of individuals)” value was found to be 10 in assay [1] (setting [4]), 0 in assay [1] (setting [5]), 0 in assay [1] (setting [6]) and 0 in assay [1] (setting [7]). Further, the “% Injury <20% (number of individuals)” value in assay [1] (setting [4]), in assay [1] (setting [5]), in assay [1] (setting [6]) and in assay [1] (setting [7]) was 0 throughout. The “% Injury >40% (number of individuals)” value came out at 0 in assay [1] (setting [4]), 10 in assay [1] (setting [5]), 10 in assay [1] (setting [6]) and 10 in assay [1] (setting [7]). Besides, the “% Injury Ave” value is on record as 27% in assay [1] (setting [4]), 69% in assay [1] (setting [5]), 83% in assay [1] (setting [6]) and 90% in assay [1] (setting [7]). In addition, the “callus induction of cotyledonary segments” value in assay [2] (concentrations tested up to 20 uM) is on record as “not effective”.
As for `O=C(O)COc1nc(Cl)c(Cl)cc1Cl` [triclopyr], the visual injury result in assay [3] (2× rate of triclopyr (560 g ae/ha)) was “no injury”. In addition, in assay [3] (840 GM AE/HA), the “% Visual injury 7DAT” value came to 0% and the “% Visual injury 15DAT” value is listed as 0%.
As to `O=C(O)COc1ccc(Cl)cc1Cl` [2,4-D, 2,4-dichlorophenoxyacetic acid], in assay [1] (setting [8]), the “% Injury 20-40% (number of individuals)” value is given as 1, the “% Injury <20% (number of individuals)” value is recorded as 4, the “% Injury >40% (number of individuals)” value worked out at 5 and the “% Injury Ave” value was 31%. Besides, in assay [1] (setting [9]), the “% Injury 20-40% (number of individuals)” value came to 0, the “% Injury <20% (number of individuals)” value came to 0, the “% Injury >40% (number of individuals)” value was 10 and the “% Injury Ave” value was found to be 70%. In assay [1] (setting [10]), the “% Injury 20-40% (number of individuals)” value is 0, the “% Injury <20% (number of individuals)” value was 0, the “% Injury >40% (number of individuals)” value is recorded as 10 and the “% Injury Ave” value worked out at 81%. Also, in assay [1] (setting [11]), the “% Injury 20-40% (number of individuals)” value was 0, the “% Injury <20% (number of individuals)” value came out at 0, the “% Injury >40% (number of individuals)” value was determined as 10 and the “% Injury Ave” value is 91%. Further, in assay [2] (highest concentration (20 uM)), the “effect on cotton callus generation and growth” value is “inhibitory”. Also, the visual injury result in assay [3] (2,4-D at 2240 g ae/ha) is given as “no injury”. Further, in assay [3] (2240 GM AE/HA), the “% Visual injury 7DAT” value amounted to 0% and the “% Visual injury 15DAT” value is on record as 0%.
